# According to patent publication US20140045824A1, “METHOD FOR PRODUCING COMPLEX CRYSTAL AND METHOD FOR SCREENING COMPLEX CRYSTAL” (priority 2011, published 2014):
# Columns and labels:
# Format in all cases: physicochemical
# [1] = Cocrystal screening by heating method without menthol (Comparative Example 3); set-up: key: A cocrystal was completely formed.; B: A mixture of a cocrystal and the host compound or guest compound was formed.; C: A cocrystal was not formed (a mixture of the host compound and the guest compound was formed); settings: host theophylline, equimolar guest, no menthol, 4 hours at 80° C.
# Protocol: 3 mg (0.0167 mmoles) of theophylline and a guest compound shown in Table 1 in an equimolar amount (0.0167 mmoles) to theophylline were weighed and mixed using an agate mortar. At that time, particles having a large size to an extent that they could be distinguished through visual inspection were grinded on the agate mortar. 10 mg of this mixed powder was weighed and put into a test tube, followed by heating for 4 hours in an oven at 80° C. The obtained solid was subjected to powder X-ray diffraction measurement and thermal analysis.
# [2] = Cocrystal screening by heat melting 1-menthol (Example 2), powder X-ray diffraction and thermal analysis; set-up: key: A cocrystal was completely formed.; B: A mixture of a cocrystal and the host compound or guest compound was formed.; C: A cocrystal was not formed (a mixture of the host compound and the guest compound was formed); settings: host carbamazepine, equimolar guest, 1-menthol added, 10 hours at 80° C.
# Protocol: Carbamazepine and a guest compound shown in Table 4 in an equimolar amount to carbamazepine were weighed and mixed using an agate mortar. […] Thereafter, the obtained mixed powder of carbamazepine, the guest compound, and 1-menthol was heated for 10 hours in an oven at 80° C., and the obtained solids were subjected to powder X-ray diffraction measurement and thermal analysis.
# [3] = Cocrystal screening by heating method without menthol (Comparative Example 6); set-up: key: A cocrystal was completely formed.; B: A mixture of a cocrystal and the host compound or guest compound was formed.; C: A cocrystal was not formed (a mixture of the host compound and the guest compound was formed); settings: host carbamazepine, equimolar guest, no menthol, 4 hours at 80° C.
# Protocol: Carbamazepine and a guest compound shown in Table 4 in an equimolar amount to carbamazepine were weighed and mixed using an agate mortar. At that time, particles having a large size to an extent that they could be distinguished through visual inspection were grinded on the agate mortar. 10 mg of this mixed powder was weighed and put into a test tube and heated for 4 hours in an oven at 80° C., and the obtained solids were subjected to powder X-ray diffraction measurement and thermal analysis.
# [4] = Cocrystal screening by slurry method (Comparative Examples 4-1 to 4-6), powder X-ray diffraction; set-up: key: A cocrystal was completely formed.; B: A mixture of a cocrystal and the host compound or guest compound was formed.; C: A cocrystal was not formed (a mixture of the host compound and the guest compound was formed).; —: A residue was not obtained; settings: host carbamazepine, room temperature 7 days; for Cocrystal formation, Comparative Example 4-3: slurry in tetrahydrofuran
# Protocol: 3 mg (0.0127 mmoles) of carbamazepine and a guest compound shown in Table 4 in an equimolar amount (0.0127 mmoles) to carbamazepine were weighed and put into a glass container, to which was then added 60 μL of water. These were shaken at room temperature for 7 days, and the obtained residues were subjected to powder X-ray diffraction measurement. 3 mg (0.0127 mmoles) of carbamazepine and a guest compound shown in Table 4 in an equimolar amount (0.0127 mmoles) to carbamazepine were weighed and put into a glass container, to which was then added 60 μL of ethanol. These were shaken at room temperature for 7 days, and the obtained residues were subjected to powder X-ray diffraction measurement. 3 mg (0.0127 mmoles) of carbamazepine and a guest compound shown in Table 4 in an equimolar amount (0.0127 mmoles) to carbamazepine were weighed and put into a glass container, to which was then added 60 μL of tetrahydrofuran. These were shaken at room temperature for 7 days, and the obtained residues were subjected to powder X-ray diffraction measurement. 3 mg (0.0127 mmoles) of carbamazepine and a guest compound shown in Table 4 in an equimolar amount (0.0127 mmoles) to carbamazepine were weighed and put into a glass container, to which was then added 60 μL of toluene. These were shaken at room temperature for 7 days, and the obtained residues were subjected to powder X-ray diffraction measurement. 3 mg (0.0127 mmoles) of carbamazepine and a guest compound shown in Table 4 in an equimolar amount (0.0127 mmoles) to carbamazepine were weighed and put into a glass container, to which was then added 60 μL of ethyl acetate. These were shaken at room temperature for 7 days, and the obtained residues were subjected to powder X-ray diffraction measurement. 3 mg (0.0127 mmoles) of carbamazepine and a guest compound shown in Table 4 in an equimolar amount (0.0127 mmoles) to carbamazepine were weighed and put into a glass container, to which was then added 60 μL of acetone. These were shaken at room temperature for 7 days, and the obtained residues were subjected to powder X-ray diffraction measurement.
# [5] = Cocrystal formation with 1-menthol under humidified condition (Example 3); set-up: key: A cocrystal was completely formed.; B: A mixture of a cocrystal and the host compound or guest compound was formed.; C: A cocrystal was not formed (a mixture of the host compound and the guest compound was formed); settings: host theophylline, 1-menthol added, 80° C. and 90% RH
# Protocol: About 30 mg (0.167 mmoles) of theophylline and about 29 mg (0.167 mmoles) of L(+)-arginine were weighed and mixed using an agate mortar. […] 15 mg of this mixed powder was weighed and put into a test tube, to which was then added 15 mg of 1-menthol which had been grinded using an agate mortar, followed by vigorously stirring for one minute using a vortex mixer. Thereafter, the obtained mixture of theophylline, L(+)-arginine, and 1-menthol was heated for 6 and 21 hours, respectively in a thermo-hygrostat at 80° C. and 90% RH, and the obtained solids were subjected to powder X-ray diffraction measurement and thermal analysis.
# [6] = Cocrystal formation by heating under humidified condition without menthol (Comparative Example 7); set-up: key: A cocrystal was completely formed.; B: A mixture of a cocrystal and the host compound or guest compound was formed.; C: A cocrystal was not formed (a mixture of the host compound and the guest compound was formed); settings: host theophylline, no menthol, 80° C. and 90% RH
# Protocol: About 30 mg (0.167 mmoles) of theophylline and […] of L(+)-arginine were weighed and put into a test tube and mixed using an agate mortar. […] 15 mg of this mixed powder was weighed and put into a test tube and heated for 6 and 21 hours, respectively in a thermo-hygrostat at 80° C. and 90% RH, and the obtained solids were subjected to powder X-ray diffraction measurement and thermal analysis.
SMILES,"Cocrystal formation, Comparative Example 3 [1]","Cocrystal formation, Example 2 [2]","Cocrystal formation, Comparative Example 6 [3]","Cocrystal formation, Comparative Example 4-3 [4]","Cocrystal formation, Comparative Example 4-5 ([4]; slurry in ethyl acetate)","Cocrystal formation, Example 3, Heating for 6 hours ([5]; 6 hours)","Cocrystal formation, Example 3, Heating for 21 hours ([5]; 21 hours)","Cocrystal formation, Comparative Example 7, Heating for 6 hours ([6]; 6 hours)","Cocrystal formation, Comparative Example 7, Heating for 21 hours ([6]; 21 hours)"
O=C1NS(=O)(=O)c2ccccc21 [Saccharin],C,A,C,—,,,,,
O=C(O)c1ccccc1 [Benzoic acid],B,A,B,—,,,,,
NC(=O)c1cccnc1 [Nicotinamide],C,A,B,,,,,,
N=C(N)NCCC[C@H](N)C(=O)O [L(+)-Arginine],C,C,C,—,,A,A,A,A
O=C(O)CCCC(=O)O [Glutaric acid],B,A,B,—,,,,,
NC(=O)c1ccccc1 [Benzamide],C,A,B,,,,,,

# Continued, in another order:
"Cocrystal formation, Comparative Example 3 [1]","Cocrystal formation, Example 2 [2]","Cocrystal formation, Comparative Example 6 [3]","Cocrystal formation, Comparative Example 4-3 [4]","Cocrystal formation, Comparative Example 4-5 ([4]; slurry in ethyl acetate)",SMILES,"Cocrystal formation, Example 3, Heating for 6 hours ([5]; 6 hours)","Cocrystal formation, Example 3, Heating for 21 hours ([5]; 21 hours)","Cocrystal formation, Comparative Example 7, Heating for 6 hours ([6]; 6 hours)","Cocrystal formation, Comparative Example 7, Heating for 21 hours ([6]; 21 hours)"
C,C,C,—,,CC(C)C[C@H](N)C(=O)O [L-Leucine],,,,
B,B,B,—,—,O=C(O)CC(O)(CC(=O)O)C(=O)O [Citric acid],,,,
C,C,C,—,,NCC(=O)O [Glycine],,,,
A,A,B,,,O=S(=O)(O)CCS(=O)(=O)O [Ethanedisulfonic acid],,,,
B,A,B,—,,C/C=C/C=C/C(=O)O [Sorbic acid],,,,
C,A,B,—,,O=C(O)C(=O)O [Oxalic acid],,,,
B,A,C,,,O=C(O)/C=C\C(=O)O [Maleic acid],,,,
